For data set [1], the system named is Abeta 1-42. The data set can be described thus: Cellular αLisa assay in SKNBE2 cells, Abeta 1-42. The following applies: Homo sapiens, SKNBE2, 18 h, incubated for 18 hours, read-out: Cellular αLisa assay in SKNBE2 cells Abeta 42 pIC50 (converted). The data set is classed as cell-based, human. The essentials:
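Secreted Abeta levels were measured by sandwich αLisa, pairing biotin-AbN/25 donor beads with Ab4G8 acceptor beads for total Abeta or cAb42/26 for Abeta 1-42, read at 615 nm after 650 nm excitation following 1 hour. Cells were SKNBE2 expressing wild-type hAPP695, exposed to compound for 18 hours.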

The target of the next data set is T1, P-gp (Homo sapiens, UniProt P08183).
T1 construct: expressed in transfected cells; host or cells: LLC-PK1 cells stably transduced with MDR1 (LLC-MDR1)
T1 sequence (P08183 whole entry): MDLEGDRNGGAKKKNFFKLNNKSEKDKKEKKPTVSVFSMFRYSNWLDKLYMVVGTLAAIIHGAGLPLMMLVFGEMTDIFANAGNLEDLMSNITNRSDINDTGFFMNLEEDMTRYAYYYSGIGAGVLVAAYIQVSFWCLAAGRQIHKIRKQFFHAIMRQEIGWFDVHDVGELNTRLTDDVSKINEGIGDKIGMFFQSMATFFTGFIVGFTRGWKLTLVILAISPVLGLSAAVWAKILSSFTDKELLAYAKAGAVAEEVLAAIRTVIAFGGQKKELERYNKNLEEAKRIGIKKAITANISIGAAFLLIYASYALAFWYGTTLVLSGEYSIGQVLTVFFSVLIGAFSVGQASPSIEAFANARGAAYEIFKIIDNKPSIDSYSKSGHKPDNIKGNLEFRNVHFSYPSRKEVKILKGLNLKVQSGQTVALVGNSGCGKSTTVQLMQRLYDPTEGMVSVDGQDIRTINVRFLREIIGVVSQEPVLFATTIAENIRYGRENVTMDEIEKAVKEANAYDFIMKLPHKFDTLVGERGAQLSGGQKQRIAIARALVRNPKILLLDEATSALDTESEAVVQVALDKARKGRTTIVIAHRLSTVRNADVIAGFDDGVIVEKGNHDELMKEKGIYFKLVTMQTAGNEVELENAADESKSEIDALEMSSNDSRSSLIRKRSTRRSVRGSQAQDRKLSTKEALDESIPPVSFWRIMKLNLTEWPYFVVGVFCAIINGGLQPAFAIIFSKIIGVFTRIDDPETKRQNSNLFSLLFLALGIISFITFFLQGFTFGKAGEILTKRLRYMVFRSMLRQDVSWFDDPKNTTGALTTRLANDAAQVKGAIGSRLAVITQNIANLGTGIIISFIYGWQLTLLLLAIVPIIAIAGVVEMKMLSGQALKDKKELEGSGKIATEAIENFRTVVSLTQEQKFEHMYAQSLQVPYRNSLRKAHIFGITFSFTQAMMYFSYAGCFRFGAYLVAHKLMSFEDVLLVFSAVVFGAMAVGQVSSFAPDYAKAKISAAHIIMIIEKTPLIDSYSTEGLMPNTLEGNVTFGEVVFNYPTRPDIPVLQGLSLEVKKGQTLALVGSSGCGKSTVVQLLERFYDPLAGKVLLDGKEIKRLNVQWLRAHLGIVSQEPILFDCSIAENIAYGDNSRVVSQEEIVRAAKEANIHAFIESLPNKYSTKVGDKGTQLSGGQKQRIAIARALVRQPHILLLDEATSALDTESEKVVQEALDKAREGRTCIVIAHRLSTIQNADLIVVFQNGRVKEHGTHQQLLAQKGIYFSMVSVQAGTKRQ
The data set can be described thus: Transepithelial transport of test compounds through LLC-MDR1 monolayers. It is filed as in vitro ADME. The following applies: pig, LLC-PK1. As to the method:
Brief Assay Description for the Measurement of Transepithelial Transport of Test Compounds Through LLC-MDR1 Monolayers
The purpose of this assay was to assess both the in vitro passive permeability of test compounds and their ability to be transported substrates of P-gp using LLC-PK1 cells stably transduced with MDR1 in a trans-well system. The positive control for transport was ^3H-digoxin (30 nM) and the positive control inhibitor was GF120918 (5 μM). The marker compound for low permeability was ^14C-Mannitol (1 μM). The test compound concentration was 1 μM.
The integrity of the cellular monolayer was assessed in each incubation well through the inclusion of the fluorescent, low permeability marker compound, Fluorescein.
In detail, LLC-MDR1 cells were seeded on 24-well cell culture inserts (Millicell®-PCF, 0.4 μm, 13 mm diameter, 0.7 cm^2) at 400,000 cells/cm^2. Cell culture medium consisted of Medium 199 supplemented with 10% Foetal Bovine Serum (FBS) and 100 U/ml Penicillin/streptomycin and was replaced the day after seeding and the day before the experiment. The transport experiment was performed 5 days after seeding. On the day of the experiment, solutions of the test compounds were applied to the apical or basolateral side of the monolayers to assess transport in the A to B and B to A directions, respectively. The medium used in the assay was (OPTI-MEM (1×) (GIBCO) with 1 w/v % Bovine Serum Albumin. Inserts were incubated at 37° C. in a humidified incubator containing 5% CO2. Samples from the acceptor and donor compartments were collected after an incubation time of 120 min, to assess the permeability and to allow estimation of the test compound recovery during the experiment, respectively. Transport experiments were performed in triplicate. Absolute test compound concentrations were measured using LC-MS/MS and quantified via a calibration curve.

For data set [2], the system named is Abeta 1-42. As to conditions: 20 mg/kg, 24 h.
Description: (§6) Single Dose Pharmacology in the Beagle Dog
(§7) Compound 86 was tested to evaluate the effect on the beta-amyloid profile in cerebrospinal fluid (CSF) of dogs after a single dose, in combination with pharmacokinetic (PK) follow up and limited safety evaluation. 6 Beagle dogs (3 male, 3 female) were dosed with vehicle (4 ml/kg of an aqueous suspension of 20% cyclodextrin and Tween) and 6 Beagle dogs (3 male, 3 female) were dosed with compound 86 (20 mg/kg in 2 ml/kg of an aqueous 20% cyclodextrin solution) on an empty stomach. CSF was taken in conscious animals directly from the lateral ventricle via a cannula which was screwed in the skull and covered with subcutaneous tissue and skin, before and at 4, 8 and 24 hours after dosing. 8 Hours after dosing the animals got access to their regular meal for 30 minutes. Blood was taken for PK follow up (0.5, 1, 2, 4, 8 and 24 hours) and at the time of the CSF sampling, samples for serum analysis were taken. An additional sample for serum analysis was taken 10 days after dosing. The CSF samples were used for measurement of Abeta 1-37, Abeta 1-38, Abeta 1-40 and Abeta 1-42.
The test system of a further data set is Aβ42. The data set can be described thus: Demonstration of in vivo efficacy, brain Aβ42 lowering (ELISA). As to conditions: mouse brain, 30 mpk, s.c., 4 h. From the text:
(§1) To determine whether acute administration of an Aβ42 peptide lowering agent would reduce Aβ peptide levels in vivo, non-transgenic rodents, e.g. mice or rats were used. Animals treated with the Aβ peptide lowering agent were examined and compared to those untreated or treated with vehicle and brain levels of soluble Aβ42 and total Aβ were quantitated by standard techniques, for example, using ELISA.
(§2) A typical protocol for measuring Aβ42 lowering in vivo is shown but it is only one of many variations that could be used to optimize the levels of detectable Aβ. For example, Aβ peptide lowering compounds were formulated in 20% hydroxypropyl 3 cyclodextrin. The Aβ peptide lowering agents were administered as a single oral dose (p.o.) or a single subcutaneous dose (s.c.) to overnight fasted animals. After a certain time, usually 2 or 4 h (as indicated in Table 19), the animals were sacrificed and Aβ42 levels were analysed.
(§3) Blood was collected by decapitation and exsanguinations in EDTA-treated collection tubes. Blood was centrifuged at 1900 g for 10 minutes (min) at 4° C. and the plasma recovered and flash frozen for later analysis. The brain was removed from the cranium and hindbrain. The cerebellum was removed and the left and right hemisphere were separated. The left hemisphere was stored at −18° C. for quantitative analysis of test compound levels. The right hemisphere was rinsed with phosphate-buffered saline (PBS) buffer and immediately frozen on dry ice and stored at −80° C. until homogenization for biochemical assays.
(§4) Mouse brains from non-transgenic animals were resuspended in 8 volumes of 0.4% DEA (diethylamine)/50 mM NaCl containing protease inhibitors (Roche-11873580001 or 04693159001) per gram of tissue, e.g. for 0.158 g brain, add 1.264 ml of 0.4% DEA. All samples were homogenized in the FastPrep-24 system (MP Biomedicals) using lysing matrix D (MPBio #6913-100) at 6 m/s for 20 seconds. Homogenates were centrifuged at 221.300×g for 50 min. The resulting high speed supernatants were then transferred to fresh eppendorf tubes. Nine parts of supernatant were neutralized with 1 part 0.5 M Tris-HCl pH 6.8 and used to quantify Aβtotal and Aβ42.
(§5) To quantify the amount of Aβtotal and Aβ42 in the soluble fraction of the brain homogenates, Enzyme-Linked-Immunosorbent-Assays were used. Briefly, the standards (a dilution of synthetic Aβ1-40 and Aβ1-42, Bachem) were prepared in 1.5 ml Eppendorf tube in Ultraculture, with final concentrations ranging from 10000 to 0.3 pg/ml. The samples and standards were co-incubated with HRPO-labelled N-terminal antibody for Aβ42 detection and with the biotinylated mid-domain antibody 4G8 for Aβtotal detection. […] The plate was allowed to incubate overnight at 4° C. in order to allow formation of the antibody-amyloid complex. Following this incubation and subsequent wash steps the ELISA for Aβ42 quantification was finished by addition of Quanta Blu fluorogenic peroxidase substrate according to the manufacturer's instructions (Pierce Corp., Rockford, Ill.). A reading was performed after 10 to 15 min (excitation 320 nm/emission 420 nm).
(In general: An ELISA detects its analyte on a solid surface through an enzyme-linked reagent.)

Another data set deals with Abeta 1-40. The following applies: 20 mg/kg, 24 h.
In another data set the test system is Aβtotal. The data set can be described thus: Demonstration of in vivo efficacy, brain Aβtotal lowering (ELISA). The following applies: mouse brain, 30 mpk, s.c., 4 h.
Description: as §1, §2, §3, §4, §5
For Aβtotal detection, a Streptavidine-Peroxidase-Conjugate was added, followed 60 min later by an additional wash step and addition of Quanta Blu fluorogenic peroxidase substrate according to the manufacturer's instructions (Pierce Corp., Rockford, Ill.). A reading was performed after 10 to 15 min (excitation 320 nm/emission 420 nm).

A value given as a limit tells only on which side of the number the result lay.

Description for Abeta 1-40: as §6, §7

`C[C@]1(c2cccc(NC(=O)c3ccc(Cl)cn3)c2)N=C(N)CO[C@@H]1F` (single isomer, unassigned) [Compound 86, (R*,R*)—N-[3-(5-amino-2-fluoro-3-methyl-3,6-dihydro-2H-1,4-oxazin-3-yl)phenyl]-5-chloropyridine-2-carboxamide]: the IC50 with Abeta 1-42 [1] is 6.92 nM. Moreover, the efflux ratio at 120 min, 1 μM on P-gp (LLC-MDR1 monolayers, ratio of B to A and A to B permeation rates, read-out: BA/AB) is 1.6. Also, the Papp A→B – broadly, how fast a substance crosses the layer from the apical side – at 120 min, 1 μM at P-gp (read-out: A to B (Apparent Permeability, Papp)) stood at 13.2 ×10⁻⁶ cm/s. Moreover, the Papp B→A (usually the apparent permeability from the basolateral to the apical side of a cell layer) at 120 min, 1 μM on P-gp (read-out: B to A (Apparent Permeability, Papp)) was found to be 20.9 ×10⁻⁶ cm/s. For the same compound, the “decrease in Abeta 1-42 in CSF compared to own baseline” value in the data set on Abeta 1-42 [2] is given as > 90%. For the same compound, the “Aβ42 (% Ctrl)_Mean” value in the data set on Aβ42 came out at 60 % Ctrl. Besides, the “decrease in Abeta 1-40 in CSF compared to own baseline” value in the data set with Abeta 1-40 is recorded as > 90%. The “Aβtotal (% Ctrl)_Mean” value with Aβtotal is 55 % Ctrl.

These data come from US9828350B2, “5,6-dihydro-2H-[1,4]oxazin-3-yl-amine derivatives useful as inhibitors of beta-secretase (BACE)” (Janssen Pharmaceutica NV, priority 2010, dated 2017).
